These results are taken from ChEMBL document CHEMBL5108030, “Structure activity relationships leading to the identification of the indirect activator of AMPK, R419” (Bioorg Med Chem, 2022).

Structures are written as SMILES. The source made the active and inactive calls. No cut-off for these calls is given here.

One data set relates to NCI-H1299. The data set can be described thus: Antiproliferative activity against human NCI-H1299 cells assessed as cell growth inhibition incubated for 48 hrs by DAPI staining assay. Format: functional, cell-based. Particulars: NCI-H1299, 48 h.
The test system of another data set is A549. The data set is described as follows: Antiproliferative activity against human A549 cells assessed as cell growth inhibition incubated for 48 hrs by DAPI staining assay. Format: functional, cell-based. Particulars: A549, 48 h.
The target of data set [1] is AMP-activated protein kinase, AMPK. The data set is described as follows: Activation of AMPK in human HepG2 cells assessed as reduction in mitochondrial ATP production incubated for 1 hr. Type of data set: cell-based.
Data set [2] has the same target. The data set is described as follows: Activation of AMPK in human HepG2 cells assessed as increase in ACC phosphorylation at Ser79 incubated for 1 hr. Type of data set: cell-based.
Data set [3] has as its target T1, hERG (KCNH2) (Homo sapiens, UniProt Q12809). The data set is described as follows: Inhibition of human ERG at 10 uM. Type of data set: toxicity.
Data set [4] has as its target T2, Cytochrome P450 3A4 (Homo sapiens, UniProt P08684). The data set can be described thus: Inhibition of CYP3A4 (unknown origin) in presence of NADPH. Type of data set: ADME.
The nature of data set [5]: Microsomal stability in human liver microsomes assessed as half life. Type of data set: ADME, Microsome.
The target in data set [6] is T1, hERG (KCNH2). The data set can be described thus: Inhibition of human ERG at 3 uM. Type of data set: toxicity.
The target of data set [7] is T2, Cytochrome P450 3A4. The data set can be described thus: Inhibition of CYP3A4 (unknown origin). Type of data set: ADME.
Data set [8] in a line: Clearance in rat at 1 mg/kg,iv measured upto 10 hrs. Format: ADME, organism-based. Particulars: in vivo.
Data set [9] can be described thus: Half life in rat at 1 mg/kg,iv measured upto 10 hrs. Format: ADME, organism-based. Particulars: in vivo.
The nature of data set [10]: AUC in diet-induced obesity model of C57BL/6J mouse at 200 mg/kg,po measured after 10 days. Type of data set: ADME, organism-based. More on the design: time 10 day, dose 200 mg/kg, route po. Particulars: in vivo, 240 h.
Data set [11] is described as follows: Drug concentration in C57BL/6J mouse at 5 mg/kg,po measured after 10 days. Type of data set: ADME, organism-based. Particulars: in vivo, time 10 day, read-out: Drug uptake.
Data set [12] deals with Mus musculus. The data set is described as follows: Hypoglycemic activity in high fat diet-induced obesity mouse model assessed as improvement in glucose tolerance at 200 mg/kg,po for 4 weeks by OGTT. Type of data set: functional, organism-based.
Data set [13] is described as follows: AUC in rat at 5 mg/kg,po measured upto 10 hrs. Format: ADME, organism-based. More on the design: time < 10 hrs, dose 5 mg/kg, route po. Particulars: in vivo.
Data set [14] relates to Mus musculus. The data set is described as follows: Hypoglycemic activity in high fat diet-induced obesity mouse model assessed as decrease in AUC blood glucose at 200 mg/kg,po for 4 weeks by OGTT. Type of data set: functional, organism-based.
Data set [15] is described as follows: Volume of distribution at steady state in rat at 1 mg/kg,iv measured upto 10 hrs. Format: ADME, organism-based. As to conditions: in vivo, read-out: Vdss.
Data set [16] in a line: Drug concentration in high fat diet-induced obesity model of C57BL/6J mouse at 100 mg/kg,po measured after 10 days. Particulars: in vivo, time 10 day, read-out: Drug uptake. Type of data set: ADME, organism-based.
Data set [17] can be described thus: Oral bioavailability in rat at 5 mg/kg measured upto 10 hrs. Type of data set: ADME, organism-based. As to conditions: in vivo.
A short description of data set [18]: Drug concentration in diet-induced obesity model of C57BL/6J mouse at 100 mg/kg,po measured after 10 days. Format: ADME, organism-based. As to conditions: in vivo, time 10 day, read-out: Drug uptake.
The nature of data set [19]: AUC in C57BL/6J mouse at 5 mg/kg,po measured after 10 days. Format: ADME, organism-based. The arrangement: time 10 day, dose 5 mg/kg, route po. As to conditions: in vivo, 240 h.
A short description of data set [20]: AUC in high fat diet-induced obesity model of C57BL/6J mouse at 100 mg/kg,po measured after 10 days. Format: ADME, organism-based. More on the design: dose 100 mg/kg, time 10 day, route po. As to conditions: in vivo, 240 h.
Data set [21] can be described thus: AUC in diet-induced obesity model of C57BL/6J mouse at 100 mg/kg,po measured after 10 days. Type of data set: ADME, organism-based. The arrangement: time 10 day, dose 100 mg/kg, route po. As to conditions: in vivo, 240 h.
Data set [22] is described as follows: Drug concentration in diet-induced obesity model of C57BL/6J mouse at 200 mg/kg,po measured after 10 days. Format: ADME, organism-based. Particulars: in vivo, time 10 day, read-out: Drug uptake.

T1 sequence (Q12809 whole entry): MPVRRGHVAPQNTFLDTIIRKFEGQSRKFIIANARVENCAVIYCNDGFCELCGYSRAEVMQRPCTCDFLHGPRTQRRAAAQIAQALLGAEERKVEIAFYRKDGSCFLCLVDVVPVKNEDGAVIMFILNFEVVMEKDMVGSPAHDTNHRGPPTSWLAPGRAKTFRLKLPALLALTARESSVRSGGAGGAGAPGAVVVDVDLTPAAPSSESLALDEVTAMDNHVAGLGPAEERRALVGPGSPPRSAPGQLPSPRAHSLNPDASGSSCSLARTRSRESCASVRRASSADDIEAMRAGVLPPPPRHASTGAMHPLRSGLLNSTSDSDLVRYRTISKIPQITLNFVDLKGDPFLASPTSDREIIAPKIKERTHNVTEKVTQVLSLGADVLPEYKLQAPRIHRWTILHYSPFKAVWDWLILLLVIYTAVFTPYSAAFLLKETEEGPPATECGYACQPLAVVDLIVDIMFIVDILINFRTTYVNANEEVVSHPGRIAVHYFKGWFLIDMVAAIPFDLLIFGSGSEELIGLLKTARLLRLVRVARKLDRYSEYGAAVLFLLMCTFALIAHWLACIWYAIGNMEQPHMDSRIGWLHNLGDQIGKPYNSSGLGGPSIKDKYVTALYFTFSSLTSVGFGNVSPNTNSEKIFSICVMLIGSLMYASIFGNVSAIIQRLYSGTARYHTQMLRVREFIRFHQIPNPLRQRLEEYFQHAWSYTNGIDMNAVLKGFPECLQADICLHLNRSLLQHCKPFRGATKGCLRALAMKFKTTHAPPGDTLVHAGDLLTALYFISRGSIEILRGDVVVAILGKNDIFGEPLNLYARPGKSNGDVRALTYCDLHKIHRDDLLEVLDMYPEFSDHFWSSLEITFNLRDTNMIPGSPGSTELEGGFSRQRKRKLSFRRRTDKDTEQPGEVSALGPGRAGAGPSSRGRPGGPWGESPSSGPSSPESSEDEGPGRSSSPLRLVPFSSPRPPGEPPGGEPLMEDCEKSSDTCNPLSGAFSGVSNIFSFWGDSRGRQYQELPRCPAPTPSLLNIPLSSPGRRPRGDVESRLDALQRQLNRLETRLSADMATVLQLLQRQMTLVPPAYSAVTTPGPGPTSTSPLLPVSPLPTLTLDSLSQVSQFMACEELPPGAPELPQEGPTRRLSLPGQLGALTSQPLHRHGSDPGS
T2 sequence (P08684 whole entry): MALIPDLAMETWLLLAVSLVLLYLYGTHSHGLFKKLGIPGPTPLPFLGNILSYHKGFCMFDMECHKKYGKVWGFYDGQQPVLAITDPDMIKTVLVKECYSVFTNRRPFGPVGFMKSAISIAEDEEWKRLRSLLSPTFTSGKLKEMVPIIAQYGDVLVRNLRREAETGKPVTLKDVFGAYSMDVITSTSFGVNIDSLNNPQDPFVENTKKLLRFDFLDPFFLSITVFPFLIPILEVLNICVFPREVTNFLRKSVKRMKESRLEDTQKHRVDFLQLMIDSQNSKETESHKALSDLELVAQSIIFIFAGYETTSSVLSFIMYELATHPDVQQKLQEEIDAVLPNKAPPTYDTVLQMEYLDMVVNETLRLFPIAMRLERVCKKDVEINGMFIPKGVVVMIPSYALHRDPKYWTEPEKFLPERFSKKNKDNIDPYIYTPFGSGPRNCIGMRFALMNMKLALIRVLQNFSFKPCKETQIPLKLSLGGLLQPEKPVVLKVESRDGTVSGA

With `COc1ccc(C(=O)C2CCN(C(=O)c3ccc(C(=O)NC4CCN(Cc5ccc(OC(F)(F)F)cc5)CC4)cn3)CC2)cc1`, the IC50 was over 20000 nM in the data set on NCI-H1299, over 20000 nM with A549 and 820 nM in data set [1]. Moreover, in [2], the EC50 amounted to 9 nM. At hERG (KCNH2) [3], this molecule gave an inhibition at 10 µM of 21%.
Consider `N#Cc1ccc(CN2CCC(NC(=O)c3ccc(C(=O)N4CCC(C(=O)c5ccc(F)cc5F)CC4)cn3)CC2)cc1`, for which the IC50 at Cytochrome P450 3A4 [4] was over 10000 nM; against Cytochrome P450 3A4 [7] it was over 10000 nM; in data set [1], 8 nM. The half-life in data set [5] was found to be 1.05 h. In addition, at 3 µM the inhibition on hERG (KCNH2) [6] was 34%. Moreover, the 50% effective concentration (EC50) in data set [2] was 27 nM.
`O=C(NC1CCN(Cc2ccc(F)cc2)CC1)c1ccc(C(=O)N2CCC(C(=O)c3ccc(N4CCCC4)cc3)CC2)nc1` came in with a clearance in [8] of 269 mL/min/kg. Also, the values for the IC50 (in the data set with NCI-H1299; with A549; in data set [1]) were 9270 nM, 8670 nM and 730 nM, respectively. Besides, the half-life in [5] is 1.05 h. In addition, the EC50 in [2] stood at 12 nM. Besides, the inhibition at 10 µM against hERG (KCNH2) [3] was found to be 82%.
Take `COc1ccc(C(=O)C2CCN(C(=O)c3ccc(C(=O)NC4CCN(Cc5ccc(C#N)cc5)CC4)cn3)CC2)cc1`: the half-life in [9] was 2.7 h; in [5], 1.18 h. For the same molecule, the clearance in [8] was found to be 150 mL/min/kg. Further, the AUC stood at 2429 ng·h/kg in data set [10], 937 ng·h/kg in data set [19], 1283 ng·h/kg in data set [20] and 1339 ng·h/kg in data set [21]. The concentration at 240 h in [11] worked out at 440 ng/mL; in [16], 64 ng/mL; in data set [18], 84 ng/mL; in [22], 140 ng/mL. The IC50 was over 20000 nM in the data set with NCI-H1299; over 10000 nM on Cytochrome P450 3A4 [4]; over 20000 nM in the data set with A549; over 10000 nM against Cytochrome P450 3A4 [7]; 2.82 nM in data set [1]. Further, the outcome in the data set with Mus musculus [12] and with Mus musculus [14] was Active. Also, the AUC at 10 h in [13] was found to be 256 ng·h/mL. This molecule had an inhibition at 3 µM against hERG (KCNH2) [6] of 61%. Also, the Vd in data set [15] was 15.1 L/kg. This molecule also came in with a bioavailability in [17] of 46%. The EC50 in data set [2] amounted to 31 nM.
In data set [8], `COc1ccc(OC2CCN(C(=O)c3ccc(C(=O)NC4CCN(Cc5ccc(C#N)cc5)CC4)nc3)CC2)cc1` displayed a clearance of 71 mL/min/kg. In addition, the IC50 at Cytochrome P450 3A4 [4] was over 10000 nM; on Cytochrome P450 3A4 [7], over 10000 nM; in [1], 60 nM. In addition, the half-life in data set [5] was found to be 1.13 h. For the same molecule, the inhibition at 3 µM against hERG (KCNH2) [6] came out at 46%. Further, in data set [2], the EC50 is 11 nM.
With `O=C(NC1CCN(Cc2ccc(F)cc2)CC1)c1ccc(C(=O)N2CCC(C(=O)c3ccc(-n4cccn4)cc3)CC2)nc1`, the IC50 with NCI-H1299 was 6580 nM; in the data set with A549 it was 5930 nM; in data set [1], 890 nM. Besides, the EC50 in [2] was 21 nM. Moreover, at hERG (KCNH2) [3], at 10 µM the inhibition was 85%.
`N#Cc1ccc(CN2CCC(NC(=O)c3ccc(C(=O)N4CCN(Cc5ccc(F)cc5)CC4)cn3)CC2)cc1` showed a clearance in [8] of 200 mL/min/kg. Also, the half-life in [5] is 0.917 h. In addition, on hERG (KCNH2) [6], the inhibition at 3 µM worked out at 36%. Also, the EC50 in data set [2] is 1 nM.
